Measurements taken from US11040976B2, “Substrate selective inhibitors of insulin-degrading enzyme (IDE) and uses thereof” (President and Fellows of Harvard College, priority 2015, dated 2021).

Experiments:
[1] = target: T1, recombinant human IDE42-1019 (Homo sapiens, UniProt P14735); assay: Protease assay with fluorogenic peptide substrate Mca-[…](Dnp)-OH; assay type: biochemical; conditions: fluorogenic peptide Mca-RPPGFSAFK(Dnp)-OH; for IC50: apparent IC50 for compounds with submaximal inhibition, read-out: IC50 (μM) Proteolysis; for Emax: plateau at high inhibitor concentration, read-out: Imax (%) Proteolysis (inhibition maximum)
T1 construct: recombinant human IDE42-1019 (R&D Systems); purchased R&D Systems
T1 sequence (P14735 42-1019): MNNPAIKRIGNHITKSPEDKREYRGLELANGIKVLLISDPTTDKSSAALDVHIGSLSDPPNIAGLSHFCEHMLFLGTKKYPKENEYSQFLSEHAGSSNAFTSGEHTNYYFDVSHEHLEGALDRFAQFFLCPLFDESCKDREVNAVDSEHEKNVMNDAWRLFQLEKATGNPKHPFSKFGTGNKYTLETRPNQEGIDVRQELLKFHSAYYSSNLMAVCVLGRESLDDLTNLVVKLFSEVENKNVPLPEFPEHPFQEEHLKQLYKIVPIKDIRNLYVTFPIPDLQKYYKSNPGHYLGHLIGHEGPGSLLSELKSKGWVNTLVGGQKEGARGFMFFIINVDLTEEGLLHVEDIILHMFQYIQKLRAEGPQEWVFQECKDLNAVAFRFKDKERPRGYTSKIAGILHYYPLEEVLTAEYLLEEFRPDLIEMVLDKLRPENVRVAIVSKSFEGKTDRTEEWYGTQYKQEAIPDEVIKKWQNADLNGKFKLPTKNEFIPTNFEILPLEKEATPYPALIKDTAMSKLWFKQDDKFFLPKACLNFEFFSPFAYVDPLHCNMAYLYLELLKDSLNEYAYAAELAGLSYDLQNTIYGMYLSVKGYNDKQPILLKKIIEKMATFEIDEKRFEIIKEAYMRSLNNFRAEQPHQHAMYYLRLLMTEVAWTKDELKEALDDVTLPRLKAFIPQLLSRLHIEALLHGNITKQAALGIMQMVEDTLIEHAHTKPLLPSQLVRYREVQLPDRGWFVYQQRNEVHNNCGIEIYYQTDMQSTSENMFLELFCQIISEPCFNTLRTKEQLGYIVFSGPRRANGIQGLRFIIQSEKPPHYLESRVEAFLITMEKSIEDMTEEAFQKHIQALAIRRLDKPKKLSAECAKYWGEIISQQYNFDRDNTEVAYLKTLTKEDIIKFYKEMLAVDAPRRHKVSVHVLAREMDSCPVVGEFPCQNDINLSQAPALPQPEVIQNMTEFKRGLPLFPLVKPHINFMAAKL

[2] = target: T2, IDE, substrate glucagon (Homo sapiens, UniProt P14735); assay: MALDI analysis of glucagon cleavage products (FIGS. 27-32); assay type: biochemical; conditions: FIG. 27A
T2 sequence (P14735 1-1019): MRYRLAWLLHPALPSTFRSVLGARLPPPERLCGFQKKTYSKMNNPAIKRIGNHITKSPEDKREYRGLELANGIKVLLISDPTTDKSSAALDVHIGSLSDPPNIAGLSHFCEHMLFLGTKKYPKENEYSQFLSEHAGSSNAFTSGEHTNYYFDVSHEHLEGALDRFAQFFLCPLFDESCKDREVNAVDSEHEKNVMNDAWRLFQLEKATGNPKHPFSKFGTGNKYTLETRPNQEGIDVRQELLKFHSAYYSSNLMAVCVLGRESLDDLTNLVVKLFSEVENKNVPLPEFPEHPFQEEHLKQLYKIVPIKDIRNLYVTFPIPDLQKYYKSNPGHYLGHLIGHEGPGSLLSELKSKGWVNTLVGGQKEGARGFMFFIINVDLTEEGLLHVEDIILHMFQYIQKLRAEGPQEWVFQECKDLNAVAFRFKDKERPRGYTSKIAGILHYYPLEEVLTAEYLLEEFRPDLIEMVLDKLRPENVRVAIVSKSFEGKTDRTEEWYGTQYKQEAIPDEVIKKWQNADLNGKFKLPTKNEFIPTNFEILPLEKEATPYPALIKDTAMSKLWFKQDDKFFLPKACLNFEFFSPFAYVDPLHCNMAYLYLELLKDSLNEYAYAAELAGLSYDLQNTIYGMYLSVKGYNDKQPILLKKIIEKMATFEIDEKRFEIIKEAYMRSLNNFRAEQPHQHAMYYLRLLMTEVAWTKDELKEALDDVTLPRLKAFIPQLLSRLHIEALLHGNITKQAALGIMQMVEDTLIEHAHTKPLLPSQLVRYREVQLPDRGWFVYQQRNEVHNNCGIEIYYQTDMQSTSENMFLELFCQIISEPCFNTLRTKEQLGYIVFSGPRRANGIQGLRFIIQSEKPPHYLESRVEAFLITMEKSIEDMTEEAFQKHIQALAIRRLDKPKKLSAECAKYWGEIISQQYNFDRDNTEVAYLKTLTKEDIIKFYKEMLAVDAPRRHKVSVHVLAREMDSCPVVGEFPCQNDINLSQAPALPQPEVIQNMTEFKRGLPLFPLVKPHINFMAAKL

[3] = target: T3, Human N-His6-IDE42-1019 (E. coli expressed) (Homo sapiens, UniProt P14735); assay: Fluorescence anisotropy high-throughput screening assay (displacement of probe FL-6b); assay type: binding
T3 construct: Human N-His6-IDE42-1019 (E. coli expressed); made in house; host or cells: E. coli (Rosetta 2 (DE3) pLysS, plasmid pTrcHis-A)
T3 sequence (P14735 42-1019): T1 sequence (P14735 42-1019)
Experimental: The fluorescence anisotropy screening method and probe FL-6b are described in PCT application PCT/US2014/064322, incorporated herein by reference.
Human N-His6-IDE42-1019 (E. coli expressed) was mixed with fluorescein-labeled macrocycle FL-6b:
[drawing 802] in 50 mM Tris buffer pH 8.0, with 1 M NaCl, at 25° C. Optimum signal was obtained using a mixture of […] probe FL-6b and 0.5 μM IDE. The “diversity-oriented (DOS) synthesis informer set” compound plates were pinned onto 384-well plates containing the enzyme-probe mixture (50 μL/well). The azetidine screen was pre-printed on 384-well plates and the enzyme-probe mixture was added (50 μL/well). The final compound concentration was 20 μM. IDE inhibitor 6bK was used as a positive control at a final concentration of 1 μM. After 30 minutes of equilibration, the increase in fluorescence anisotropy was recorded using an EnVision spectrophotometer (excitation 492 nm, emission 523 nm). The fluorescence anisotropy was independently measured twice for each screened compound. The Z-scores for each pair of measurements are plotted in FIG. 1A (DOS informer set) and FIG. 1B (azetidines), and average Z-scores are listed for exemplary compounds in Table E1.
Z-scores were calculated based on the raw anisotropy measured for each well according to Eq. 1, wherein x is the raw anisotropy value of the well, μ is the mean of the anisotropy of the negative control wells (DMSO) for the plate, and σ is the standard deviation in anisotropy of the negative control wells (DMSO) for the plate.

[4] = target: T4, IDE (R&D), substrate glucagon (Homo sapiens, UniProt P14735); assay: HTRF assay for IDE-mediated degradation of glucagon; assay type: biochemical; conditions: compounds 67 μM, 0° C. for 10 minutes, versus DMSO alone, FIG. 5
T4 construct: recombinant human IDE42-1019 (R&D Systems); purchased R&D
T4 sequence (P14735 42-1019): T1 sequence (P14735 42-1019)
Experimental: A solution of 0.05 μg/mL IDE (R&D) in “Diluent #5” (CisBio, 24 μL) was transferred to a 200 μL tube strip, and combined with 1 μL of each inhibitor (10 mM in DMSO, or as a 3-fold dilution series). […] This procedure was optimized to result in ˜75% degradation of glucagon. The reaction was terminated by 1 μL of inhibitor Ii1 (5 μM) and chilled on ice. The remaining glucagon was quantified using 10 μL of the quenched enzymatic reaction using the sensitive-range protocol Homogeneous Time-Resolved FRET Glucagon assay (CisBio® 62GLCPEF, see FIG. 3) in 20 μL total volume according to the manufacturer's instructions (384 well-plate Greiner 784904 non-binding). Fluorescence was measured using a Tecan M1000Pro plate reader (excitation=340 nm, emission=665 and 620 nm, lag time=60 μs) according the assay manufacturer's recommendations. Blank wells and glucagon standard curve were included in the assay.
FIG. 4 compares the determined endpoint for insulin degradation with of glucagon degradation for a DMSO control, 6bK at 10 μM, and exemplary compounds of the invention at concentrations of 67 μM.
The HTRF endpoint assay for insulin and glucagon was performed over a range of concentrations for several potential inhibitors and for 6bK.

[5] = final compound concentration 20 μM (6bK control 1 μM), values without asterisk

Row | SMILES | IC50 [1] [µM] | main glucagon cleavage site [2] | Average Z-score (Fluorescence anisotropy) [3, 5] | initial rates of glucagon cleavage [4] | Emax [1] [%] | Average Z-score (Fluorescence anisotropy) ([3]; values marked *: from the screen using the diversity-oriented synthesis (DOS) informer set of plates, 20 μM)
1 | Cc1cccc(-c2ccc([C@@H]3[C@@H](CO)N4CCCCN(S(=O)(=O)c5ccccc5C(F)(F)F)C[C@@H]34)cc2)c1C [JP-17] | 0.001 | no change in the main glucagon cleavage site |  |  |  | 
2 | Cc1cccc(-c2ccc([C@H]3C4CN(S(=O)(=O)c5ccccc5C(F)(F)F)CCCCN4[C@@H]3CF)cc2)c1C (stereo partly shown) [JP-18] |  | no change in the main glucagon cleavage site |  |  |  | 
3 | Cc1ccccc1-c1ccc([C@H]2[C@H](CO)N3C(=O)CN(C(=O)NC4CCCC4)C[C@@H]23)cc1 [compound 504] | 0.8 |  | −20.82 | enhanced |  | 
4 | Cc1ccccc1-c1ccc([C@@H]2[C@@H](CO)N3CCCCN(S(C)(=O)=O)C[C@@H]23)cc1 [compound 591] | 1.5 |  | −17.90 | enhanced | 40 | 
5 | CCCNC(=O)N1CC(=O)N2[C@H](CO)[C@@H](c3ccc(-c4cccc(C)c4)cc3)[C@@H]2C1 [compound 779] | 0.8 |  | −22.36 | reduced | 60 | 
6 | Cc1ccccc1-c1ccc([C@H]2[C@@H](CO)N3C(=O)CN(C(=O)Cc4ccccn4)C[C@@H]23)cc1 [compound 805] | 2.5 |  | −17.31 |  | 70 | 
7 | Cc1cccc(-c2ccc([C@H]3[C@@H](CO)N4CCCCN(C(=O)c5ccncc5)C[C@H]34)cc2)c1 [compound 836] |  |  | −18.28 |  | 60 | 
8 | Cc1cccc(-c2ccc([C@@H]3[C@@H](CO)N4CCCCN(CC5CC5)C[C@@H]34)cc2)c1 [compound 837] | > 100 |  | −2.88 |  |  | 
9 | Cc1cccc(-c2ccc([C@@H]3[C@H]4CN(C(=O)c5cccnc5)CC(=O)N4[C@H]3CO)cc2)c1 [compound 838] |  |  | −17.68 |  | 80 | 
10 | Cc1ccccc1-c1ccc([C@@H]2[C@H]3CN(S(=O)(=O)c4cn(C)cn4)CCCCN3[C@H]2CO)cc1 [compound 868] | 2.5 |  | −18.53 |  | 40 | 
11 | Cc1ccccc1-c1ccc([C@H]2[C@@H](CO)N3CCCCN(C(=O)Cc4ccccn4)C[C@@H]23)cc1 [compound 890] | > 100 |  | −5.69 |  |  | 
12 | Cc1cccc(-c2ccc([C@@H]3[C@@H](CO)N4C(=O)CN(C(=O)NC5CCCCC5)C[C@@H]34)cc2)c1 [compound 904] | > 5 |  | −16.59 |  |  | 
13 | Cc1ccccc1-c1ccc([C@@H]2[C@H](CO)N3CCCCN(C(=O)NC4CCCC4)C[C@@H]23)cc1 [compound 932] | > 20 |  | −19.01 |  | 90 | 
14 | Cc1cccc(-c2ccc([C@@H]3[C@@H](CO)N4CCCCN(S(=O)(=O)c5cccs5)C[C@@H]34)cc2)c1 [compound 945] |  |  | −3.77 |  | 30 | 
15 | Cc1cccc(-c2ccc([C@H]3[C@@H](CO)N4CCCCN(Cc5cccnc5)C[C@H]34)cc2)c1 [compound 959] | > 60 |  | −6.79 |  |  | 
16 | CCS(=O)(=O)N1CCCCN2[C@@H](CO)[C@@H](c3ccc(C#Cc4ccccc4OC)cc3)[C@@H]2C1 [compound 964] | 2.5 |  | −19.69 |  | 90 | 
17 | COc1ccccc1-c1ccc([C@H]2[C@@H](CO)N3CCCCN(C(=O)c4cccnc4)C[C@H]23)cc1 [compound 983] | > 20 |  |  |  | 90 | −12.81*
18 | Cc1ccccc1-c1ccc([C@H]2[C@@H](CO)N3CCCCN(C(=O)Nc4ccccc4)C[C@@H]23)cc1 [compound 1570] | 7 |  | −1.37 |  | 40 | 
19 | Cc1ccccc1-c1ccc([C@H]2[C@@H](CO)N3C(=O)CN(C(=O)c4cccnc4)C[C@H]23)cc1 [compound 3421] | 2 |  | −17.16 |  | 60 | 
